Some test systems named below: NCI-H23; Hs-578T; OVCAR-3; OVCAR-4; HT-29; MDA-MB-231; OVCAR-8; HL-60; DU-145; BT-549; IGROV-1; MCF7; A498; SK-OV-3; SF-268; MDA-MB-435; ACHN; KM12; K562; HCT-15.
What all share (assay): NCI tumour cell line growth inhibition, 48 h

Molecules are shown by their SMILES.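 Five concentrations, 48 hours, 96-well plates. GI50 = concentration required for 50% inhibition of growth.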 Active and inactive are the calls of the source. Rule as the data show it: active = GI50 up to about 1.1 µM and inactive = higher. Where a SMILES comes first, the peptide text is derived from it. The star is where a group is joined. X33 = O=C(c1ccc(-c2ccc(Cl)cc2Cl)o1)*

In the case of `CCN(CC)C(=O)Cn1c2ccccc2[n+]2cc(N)ccc12`, the GI50 in the experiment on NCI-H23, in the experiment on Hs-578T, in the experiment on OVCAR-3, in the experiment with OVCAR-4, in the experiment on HT-29 and in the experiment with MDA-MB-231 was > 100 µM (inactive) each time. In addition, the GI50 in the experiment on OVCAR-8, with HL-60, with DU-145, in the experiment with BT-549, in the experiment with IGROV-1 and in the experiment with MCF7 was > 100 µM (inactive) each time. For the same compound, the GI50 with A498, in the experiment with SK-OV-3, in the experiment on SF-268, with MDA-MB-435, in the experiment with ACHN and with KM12 was > 100 µM (inactive) each time. For the same compound, the values for the GI50 in the experiment with K562 and in the experiment on HCT-15 were > 100 µM (inactive) and greater than 100 µM, respectively.
As to `Oc1ccc(CNCc2ccccc2)c2cccnc12`, the GI50 was 0.156 µM (active) in the experiment with NCI-H23; 0.243 µM (active) in the experiment with Hs-578T; 0.217 µM (active) in the experiment on OVCAR-3; 0.421 µM (active) in the experiment on OVCAR-4; 4.11 µM (inactive) in the experiment on HT-29; 0.36 µM (active) in the experiment with MDA-MB-231. Moreover, the GI50 in the experiment with OVCAR-8 was 0.107 µM (active); with HL-60, 0.294 µM (active); in the experiment on DU-145, 0.0452 µM (active); in the experiment on BT-549, 0.0703 µM (active); with IGROV-1 it was 0.292 µM (active); with MCF7, 0.11 µM (active). Also, the GI50 with A498 was 0.354 µM (active); with SK-OV-3, 0.542 µM (active); in the experiment on SF-268, 0.24 µM (active); in the experiment on MDA-MB-435, 0.0841 µM (active); in the experiment with ACHN, 0.182 µM (active); with KM12, 0.448 µM (active). The GI50 with K562 is 0.138 µM (active); with HCT-15 it was 0.0628 µM.
In the case of `O=S1(=O)c2ccccc2N2C(c3ccccc3)=NOC2(c2ccccc2)CC1c1ccc(Br)cc1` (centres undefined), the GI50 in the experiment with NCI-H23, in the experiment with Hs-578T, in the experiment on OVCAR-3, in the experiment with OVCAR-4, in the experiment on HT-29 and with MDA-MB-231 was > 100 µM (inactive) throughout. For the same compound, the GI50 with OVCAR-8, in the experiment on HL-60, in the experiment with DU-145, in the experiment with BT-549, in the experiment with IGROV-1 and in the experiment on MCF7 was > 100 µM (inactive) throughout. The GI50 with A498, in the experiment with SK-OV-3, in the experiment with SF-268, in the experiment on MDA-MB-435, with ACHN and in the experiment on KM12 was > 100 µM (inactive) throughout. In addition, the GI50 with K562 is > 100 µM (inactive); with HCT-15, greater than 100 µM.
In the case of `CCC(C)C(NC(=O)CNC(=O)C(Cc1ccccc1)NC(=O)C1CCCN1C(=O)c1ccc(-c2ccc(Cl)cc2Cl)o1)C(=O)OC` (centres undefined) (X33-PFGI-OMe; configuration not given here), the GI50 in the experiment on NCI-H23 was 34.1 µM (inactive); in the experiment with Hs-578T, 50.2 µM (inactive); in the experiment on OVCAR-3, 23.5 µM (inactive); in the experiment on OVCAR-4, 28.6 µM (inactive); with HT-29, 15 µM (inactive); with MDA-MB-231, 24.7 µM (inactive). Further, the GI50 with OVCAR-8 is 27.4 µM (inactive); in the experiment with HL-60, 3.47 µM (inactive); with DU-145 it was 39.5 µM (inactive); with BT-549, 92.5 µM (inactive); with IGROV-1, 19.6 µM (inactive); in the experiment with MCF7 it was 20.8 µM (inactive). The GI50 was 7.4 µM (inactive) in the experiment with A498; 89.5 µM (inactive) in the experiment on SK-OV-3; 69.2 µM (inactive) in the experiment on SF-268; 38.9 µM (inactive) in the experiment with MDA-MB-435; 33.8 µM (inactive) in the experiment on ACHN; 37.5 µM (inactive) in the experiment with KM12. In addition, the GI50 is 22 µM (inactive) in the experiment with K562 and 43.1 µM in the experiment on HCT-15.
For `Cc1ccc(/N=N/c2c(C)nn(C(=O)CC(=O)Nc3ccccc3)c2C)cc1C`, the GI50 in the experiment on NCI-H23, in the experiment on Hs-578T, in the experiment on OVCAR-3, in the experiment on OVCAR-4, in the experiment with HT-29 and in the experiment with MDA-MB-231 was > 100 µM (inactive) each time. Also, the GI50 with OVCAR-8, in the experiment on HL-60, in the experiment with DU-145, in the experiment on BT-549, in the experiment with IGROV-1 and with MCF7 was > 100 µM (inactive) each time. Moreover, the GI50 in the experiment with A498, with SK-OV-3, with SF-268, with MDA-MB-435, with ACHN and with KM12 was > 100 µM (inactive) throughout. In addition, in the experiment with HCT-15, the GI50 is greater than 100 µM.
On to `CCOC(=O)C1(Cc2ccc(C)cc2)Cc2ccc(C)cc2C1=O` (centres undefined), for which the GI50 in the experiment with NCI-H23 is 18.5 µM (inactive); in the experiment on Hs-578T, 16.3 µM (inactive); in the experiment with OVCAR-3, 18.5 µM (inactive); in the experiment with OVCAR-4 it was 36.4 µM (inactive); in the experiment with HT-29 it was 5.43 µM (inactive); in the experiment on MDA-MB-231, 16.5 µM (inactive). The GI50 in the experiment on OVCAR-8 is 27.2 µM (inactive); in the experiment with HL-60 it was 2.55 µM (inactive); in the experiment with DU-145 it was 41.4 µM (inactive); in the experiment on BT-549, 10 µM (inactive); in the experiment with IGROV-1, 21.1 µM (inactive); in the experiment with MCF7 it was 6.52 µM (inactive). Besides, the GI50 in the experiment on A498 is 23.5 µM (inactive); in the experiment on SK-OV-3, 24.4 µM (inactive); with SF-268, 48.4 µM (inactive); in the experiment with MDA-MB-435, 2.81 µM (inactive); in the experiment on ACHN, 41.7 µM (inactive); in the experiment on KM12, 4.57 µM (inactive). Besides, the GI50 is 1.88 µM (inactive) in the experiment on K562 and 7.85 µM in the experiment on HCT-15.
In the case of `CN(CCN(C)Cc1ccc(Cl)c(Cl)c1)CCN1CCCC1`, the GI50 with NCI-H23 was 42.1 µM (inactive); in the experiment with Hs-578T it was 9.04 µM (inactive); in the experiment with OVCAR-3, > 75.7 µM (inactive); in the experiment with OVCAR-4, 52.5 µM (inactive); in the experiment on HT-29, 6.32 µM (inactive); in the experiment on MDA-MB-231, 18.8 µM (inactive). Further, the GI50 is 20.1 µM (inactive) in the experiment with OVCAR-8; 17.5 µM (inactive) in the experiment on HL-60; 61.2 µM (inactive) with DU-145; 65.6 µM (inactive) in the experiment with BT-549; 15.8 µM (inactive) in the experiment with IGROV-1; 28.4 µM (inactive) in the experiment with MCF7. Besides, the GI50 is 16.1 µM (inactive) with A498; 71.9 µM (inactive) with SK-OV-3; 10.4 µM (inactive) with SF-268; 7.82 µM (inactive) in the experiment on MDA-MB-435; > 43.3 µM (inactive) in the experiment on ACHN; 29.9 µM (inactive) with KM12. In addition, the GI50 in the experiment with K562 was 9.16 µM (inactive); in the experiment on HCT-15, 37.2 µM.
Take `CC(=O)N(C(C)=O)c1cc2c3c(c1)CCCN3CCC2`: the GI50 with NCI-H23, in the experiment with Hs-578T, in the experiment with OVCAR-3, with OVCAR-4, with HT-29 and in the experiment with MDA-MB-231 was > 10 µM (inactive) throughout. Moreover, the GI50 in the experiment on OVCAR-8, with HL-60, in the experiment with DU-145, with BT-549, in the experiment with IGROV-1 and in the experiment on MCF7 was > 10 µM (inactive) in each case. Also, the GI50 with A498, in the experiment with SK-OV-3, in the experiment with SF-268, in the experiment on MDA-MB-435, with ACHN and with KM12 was > 10 µM (inactive) throughout. Further, the results for the GI50 in the experiment on K562 and in the experiment on HCT-15 were > 10 µM (inactive) and greater than 10 µM, respectively.
For the compound `COC(=O)C1=C(C(=O)OC)SC(=C2SCSC3=C2SC(C(=O)OC)=C(C(=O)OC)C32SC3=C(CCCC3)S2)S1`, the GI50 with NCI-H23 is > 100 µM (inactive); with Hs-578T, > 100 µM (inactive); in the experiment with OVCAR-3, > 100 µM (inactive); in the experiment with OVCAR-4, > 100 µM (inactive); in the experiment with HT-29, > 100 µM (inactive); in the experiment on MDA-MB-231 it was 95.3 µM (inactive). In addition, the GI50 in the experiment with OVCAR-8, with HL-60, in the experiment on DU-145, in the experiment with BT-549, in the experiment with IGROV-1 and in the experiment with MCF7 was > 100 µM (inactive) each time. The GI50 is 99.8 µM (inactive) in the experiment with A498; > 100 µM (inactive) with SK-OV-3; > 100 µM (inactive) in the experiment with SF-268; > 100 µM (inactive) with MDA-MB-435; 62.2 µM (inactive) in the experiment on ACHN; > 100 µM (inactive) with KM12. Moreover, the GI50 in the experiment with K562 was > 100 µM (inactive); with HCT-15, greater than 100 µM.
For `COC(=O)CCCC(=O)/C(=N\Nc1ccc(Cl)cc1)Nc1c(Cl)cccc1Cl`, the GI50 was 48.2 µM (inactive) in the experiment on NCI-H23; 42.8 µM (inactive) with Hs-578T; 55.5 µM (inactive) in the experiment with OVCAR-3; 46.3 µM (inactive) in the experiment on OVCAR-4; 56.6 µM (inactive) in the experiment with HT-29; > 82.8 µM (inactive) in the experiment on MDA-MB-231. Further, the GI50 in the experiment on OVCAR-8 is > 100 µM (inactive); with HL-60 it was 7.06 µM (inactive); in the experiment on DU-145, 52.4 µM (inactive); in the experiment with BT-549 it was > 100 µM (inactive); with IGROV-1, > 81.7 µM (inactive); in the experiment with MCF7 it was 53.8 µM (inactive). For the same compound, the GI50 with A498 was 29.5 µM (inactive); with SK-OV-3, > 100 µM (inactive); in the experiment with SF-268 it was > 89.7 µM (inactive); in the experiment with MDA-MB-435, 76.7 µM (inactive); in the experiment on ACHN it was > 87.9 µM (inactive); with KM12 it was 32 µM (inactive). For the same compound, the figures for the GI50 in the experiment with K562 and in the experiment on HCT-15 were 48.1 µM (inactive) and 72.3 µM, respectively.

Values taken from ChEMBL document CHEMBL1201862, “PubChem BioAssay data set” (2004).
